The values that follow come from ChEMBL document CHEMBL1149488, “Antitumour properties of fluorinated benzothiazole-substituted hydroxycyclohexa-2,5-dienones ('quinols')” (2006).

Format in all cases: functional
The target in experiment [1] is T1, Thioredoxin reductase (Homo sapiens) (UniProt Q16881+Q9NNW7+Q86VQ6). As to the kind of experiment: Inhibition of human thioredoxin signalling assessed as inhibition of insulin reduction at 100 uM.
Experiment [2] has as its target T1, Thioredoxin reductase (Homo sapiens). Briefly: Inhibition of human thioredoxin signalling assessed as inhibition of insulin reduction at 50 uM.
Experiment [3] deals with MCF7. As to the kind of experiment: Antitumor activity against human MCF7 cells by MTT assay.
The subject of experiment [4] is HCT-116. Briefly: Antitumor activity against human HCT116 cells by MTT assay. (In general: Tetrazolium assays rely on reduction of a dye to a coloured formazan, in cell work by metabolically active cells.)
In experiment [5] the test system is MDA-MB-468. As to the kind of experiment: Antitumor activity against human MDA-MB-468 cells by MTT assay.
The test system of experiment [6] is Panel NCI-60 (60 carcinoma cell lines). Briefly: Antitumor activity against human NCI60 cells.
Experiment [7] has as its system HT-29. Briefly: Antitumor activity against human HT29 cells by MTT assay.
The target in experiment [8] is T1, Thioredoxin reductase (Homo sapiens). Briefly: Inhibition of human thioredoxin signalling assessed as inhibition of insulin reduction at 10 uM.
Experiment [9] has the same target. Briefly: Inhibition of human thioredoxin signalling assessed as inhibition of insulin reduction at 25 uM.

Consider `O=C1C=CC(O)(c2nc3ccccc3s2)C=C1`, for which the inhibition (usually the share of the control response that was lost under treatment) in [1] was 95.8%; in experiment [2], 94.8%; in [8], 13.2%; in experiment [9], 35.1%. The GI50 (usually the concentration that inhibits growth by half) in experiment [3] was found to be 0.44 µM; in experiment [4], 0.11 µM; in experiment [5], 0.41 µM; in [6], 0.23 µM; in [7], 0.59 µM.
